Results on two compounds are retold here after article PMC12656566, “Toxicokinetic Characterization of MDM Hydantoin via Stable Metabolite DMH: Population Modeling for Predicting Dermal Formaldehyde Formation” (Toxics, 2025).

The series can be described thus: Toxicokinetics after transdermal application of gel containing 2% MDMH or DMH (plasma, non-compartmental analysis). To be noted: rats; for bioavailability: plasma, DMH, TD application of 2% DMH gel (10.7 mg/kg) vs IV, read-out: Absolute bioavailability. It is filed as in vivo. The procedure: An API 4000 LC-MS/MS system (Applied Biosystems/MDS Sciex, Foster City, CA, USA) coupled with an Agilent 1100 HPLC (Agilent Technologies, Santa Clara, CA, USA) was used for determination of MDMH and DMH in rat plasma. The analytes were separated on a Synergi Fusion-RP 80 Å (150 × 2.0 mm, i.d., 4 µm;) with a Security Guard™ Cartridge AJ0-7556 (Phenomenex, Torrance, CA, USA), and the column oven temperature was maintained at 30 °C. An isocratic solvent system of distilled water and methanol (80:20, v/v) was used with a runtime of 7 min. The injection volume was 10 µL, and the flow rate was maintained at 0.2 mL/min.
For plasma sample preparation, formic acid was immediately added to blood samples upon collection to achieve a final concentration of 0.5% to prevent potential enzymatic degradation of MDMH, and all sample preparation procedures were conducted at ≤4 °C to minimize temperature-dependent decomposition of the analytes. For analysis, 50 μL of internal standard solution and 100 μL of methanol containing 0.5% formic acid (as precipitating solvent) were added to 50 μL of plasma, followed by vortex-mixing for 2 min. After centrifugation at 21,206× g for 10 min, 40 μL of supernatant was mixed with 160 μL of 0.5% formic acid in distilled water, and 10 μL was injected into the LC-MS/MS system.
All animal care and experiments were conducted to evaluate the toxicokinetics of MDMH and DMH according to the Guidelines for the Care and Use of Animal approved by the Ethics Committee for Treatment of Laboratory Animal at Daegu Catholic University (CUD-2019-020). To evaluate the toxicokinetics of MDMH and DMH in rats after intravenous injection (IV) or transdermal application (TD). Male Sprague-Dawley rats (9 weeks, body weight 260–310 g) (Hyochang Science Co., Daegu, Republic of Korea) were kept in plastic cages and fed regularly with water and feed. Rats were acclimated for a minimum of 1 week prior to the experiment under conditions keeping a 12 h light-dark cycle, a temperature of 23 ± 2 °C, and a relative humidity of 50 ± 10%. The rats were cannulated using polyethylene tubing (0.58 mm i.d., 0.96 mm o.d., Natsume, Tokyo, Japan) in the jugular vein after intraperitoneal injection at a dose of 0.9 mL/kg of Zoletil 50 (Virbac, Carros, France).
The transdermal application study was performed according to the “Organization for Economic Cooperation and Development guidelines for the in vivo skin absorption test”. Rats were anesthetized using inhaled isoflurane, and the back area of 6 × 6 cm^2 was removed using an electric clipper (808, Daito Electric Co., Osaka, Japan) 12 h before administration. The clipped skin of the rat was wiped with acetone without damaging the stratum corneum, and a resting period was allowed just before the study.
For TD application, a gel corresponding to approximately 5 mg/cm^2 was applied to an area of 5 × 5 cm^2 among the depilated areas. The doses of MDMH and DMH for the transdermal application study were 10.9 and 10.7 mg/kg on average, respectively. Although the regulatory limit for MDMH in cosmetics is 0.2%, a higher concentration (2%) was employed to ensure adequate systemic exposure and plasma concentrations suitable for accurate toxicokinetic characterization of these rapidly metabolized compounds. To prevent loss of the compounds due to volatilization and grooming, the application on the back site was adhered with gauze and pads. Blood samples were collected via the jugular vein in the MDMH application group at 0, 30 min, and 1, 2, 3, 4, 5, 6, 7, 8, 10, 12, and 24 h (13 points/head), and in the DMH application group at 0, 30 min, and 1, 2, 3, 4, 6, 8, 10, 12, and 24 h (11 points/head). Plasma samples were harvested by centrifugation of obtained blood for 10 min at 4000× g, and stored at −20 °C until analysis.
The toxicokinetic parameters were calculated by standard non-compartmental analysis using the non-linear least squares regression program Phoenix™ WinNonlin® 6.1 (Pharsight, Cary, NC, USA). […]

Setting [1] is: male, Sprague-Dawley, rat, topical or ocular, DMH in plasma after TD application of gel containing 2% DMH (10.7 mg/kg), n = 5.

Entries after “also recorded” stand apart in the source; their conditions may differ. Read-outs that look alike come from different tables or passages of the source.

The AUC(0-t) is the area under the concentration-time curve up to a stated or last time point. A word on the Cmax: it is the maximum level reached in the sampled fluid or tissue. The Tmax is the time from dosing to the highest level. One may read the half-life as how long it takes for the measured level to halve. `CC1(C)NC(=O)NC1=O` [DMH, 5,5-dimethylhydantoin]: the bioavailability (male, Sprague-Dawley, rat, topical or ocular, n = 5) is 101 ± 18%. For the same compound, the bioavailability (male, Sprague-Dawley, rat, topical, n = 5) is 101 ± 18%. Besides, under setting [1], the AUC(0-t) is 40510 ± 50 ng·h/mL, the maximum concentration (Cmax) amounted to 6460 ± 1690 ng/mL, the time to peak (Tmax) amounted to 2 ± 1.73 h and the half-life is 5.36 ± 2.18 h. Also, the AUC(0-inf) (male, Sprague-Dawley, rat, topical or ocular, DMH in plasma after TD application of gel containing 2% DMH (10.7 mg/kg), n = 5, read-out: AUCinfinity) was found to be 51500 ± 5530 ng·h/mL.
Regarding `CC1(C)C(=O)NC(=O)N1CO` [MDMH, 1-(Hydroxymethyl)-5,5-dimethylhydantoin], the “parent compound plasma concentrations after transdermal application” value (MDMH in plasma after MDMH gel TD application, throughout the sampling period) is reported as “below the quantification limit; also recorded: below quantification limits”. Besides, the “Fm to DMH (fraction metabolized)” value (ratio of DMH exposure after MDMH gel TD (10.9 mg/kg) to that after DMH gel TD) is 89.78 ± 24.15%.
